Data reported in patent US6326395A, “Antifungal activity of dicationic molecules” (priority 1999, dated 2001).
Structures can show the parent of a compound that is named as a salt.

What was measured:
Assay in all cases: antifungal susceptibility testing (MIC, MFC), extended spectrum
Candida albicans A39 = assay type: cell-based; conditions: Candida albicans A39
Excerpt: (§1) Antifungal susceptibility testing for compounds set forth in Examples 1-20 is discussed hereinbelow. The fungi that were employed included two reference strains, C. neoformans var. neoformans H99 and C. albicans A39 and the following clinical isolates: (1) two strains of fluconazole-resistant C. neoformans var. neoformans (135.95 and 114.96); (2) two strains of C. neoformans var. gattii (119.95 and 114.95); (3) two strains of fluconazole-resistant C. albicans (102.96 and 103.96); and (4) one strain each of Torulopsis glabrata (142.91), Candida parapsilosis (111.96), Candida krusei (132.91), C. tropicalis (110.96), Candida lusitaniae (111.92), Fusarium solani (152.89), Aspergillus fumigatus (168.95), and Aspergillus flavus (112.96). Antifungal susceptibility testing was performed using an RPMI-1640 medium (Sigma Chemical Co., St. Louis, Mo.) with glutamine, without sodium bicarbonate, and buffered at pH 7.0 with 0.165 M morpholine-propanesulfonic acid (MOPS).
(§2) In vitro susceptibility testing in the form of Minimum Inhibitory Concentration (MIC) experiments were performed using the broth macrodilution method according to the recommendations of the National Committee for Clinical Laboratory Standards (see 1995 manual). The only difference compared to the standardized procedure was the choice of drug dilutions ranging from 100 to 0.09 μg/ml. Briefly, this procedure specifies an inoculum grown at 35° C. and adjusted to a concentration of 0.5-2.5×10^3 CFU/ml with an incubation of the test performed at 35° C. and reading at 48 hours for all yeasts except for C. neoformans which is interpreted at 72 hr.
(§3) Minimum Fungicidal Concentration (MFC) experiments were adapted from a method by McGinnis (McGinnis, M. R., (1980) "Susceptibility testing and bioassay procedure", p. 431, Academic Press, Inc., New York). Briefly, 10 μl aliquots from tubes with growth inhibition were plated onto Sabouraud agar plates. The lowest drug concentration that yielded three or fewer yeasts colonies was recorded as the MFC.
Antifungal susceptibility testing for compounds set forth in Examples 21-28 is discussed hereinbelow. […]
(§4) Minimum Fungicidal Concentration (MFC) experiments were adapted from a method by McGinnis (McGinnis, M. R., (1980) "Susceptibility testing and bioassay procedure", p.431, Academic Press, Inc., New York). […] The lowest drug concentration that yielded 3 or fewer yeasts colonies was recorded as the MFC. […]

C. albicans 102.96 = assay type: cell-based, Candida albicans; conditions: Candida albicans, C. albicans 102.96, fluconazole-resistant
Excerpt: as §1, §2, §3
(§5) Antifungal susceptibility testing for compounds set forth in Examples 21-28 is discussed hereinbelow. The fungi that were employed included two quality control reference strains, C. neoformans var. neoformansH99 and C. albicans A39 and the following clinical isolates: (1) four strains of C. neoformans var. neoformans (167.95; 135.95; 114.96; and 133.95) of which three were fluconazole-resistant>64 μg/ml (135.95; 114.96; and 133.95); (2) two strains of C. neoformans var. gattii (119.95 and 114.95); (3) two strains of fluconazole-resistant>64 μg/ml C. albicans (102.96 and 103.96); and (4) one strain each of C. glabrata (142.91), Candida parapsilosis (111.96), Candida krusei (132.91), C. tropicalis (110.96), Candida lusitaniae (111.92), Fusarium solani (152.89), Aspergillus fumigatus (168.95), Rhizopus arrhizus (117.89), Paecilomyces lilacinus (137.90), and Aspergillus flavus (112.96). Antifungal susceptibility testing was performed using an RPMI-1640 medium (Sigma Chemical Co., St. Louis, Mo.) with glutamine, without sodium bicarbonate, and buffered at pH 7.0 with 0.165 M morpholinepropanesulfonic acid (MOPS).
as §3, with “p.431,” for “p. 431,”, “3” for “three”, “MFC. Several drugs were also rescreened with a subculture of 100 μl aliquots from tubes with no growth and there was no change in MFC.” for “MFC.”

C. albicans 103.96 = assay type: cell-based, Candida albicans; conditions: Candida albicans, C. albicans 103.96, fluconazole-resistant
Excerpt: as §1, §2, §3, §5
as §3, with “p.431,” for “p. 431,”, “3” for “three”, “MFC. Several drugs were also rescreened with a subculture of 100 μl aliquots from tubes with no growth and there was no change in MFC.” for “MFC.”

C. krusei 132.91 = assay type: cell-based, Candida krusei; conditions: Pichia kudriavzevii
Protocol: (§6) Antifungal susceptibility testing for compounds set forth in Examples 1-20 is discussed hereinbelow. […]
as §2, with “The only difference compared to the standardized procedure was the choice of drug dilutions ranging from 100 to 0.09 μg/ml.” left out
as §4, with “p. 431,” for “p.431,”, “three” for “3”
as §4

C. lusitaniae 111.92 = assay type: cell-based, Candida lusitaniae; conditions: Clavispora lusitaniae
Protocol: as §6
as §2, with “The only difference compared to the standardized procedure was the choice of drug dilutions ranging from 100 to 0.09 μg/ml.” left out
as §4, with “p. 431,” for “p.431,”, “three” for “3”
as §4

[1] = system: Cryptococcus neoformans H99; assay type: cell-based, C. neoformans var. neoformans; conditions: Cryptococcus neoformans H99
Excerpt: as §1
as §2, with “The only difference compared to the standardized procedure was the choice of drug dilutions ranging from 100 to 0.09 μg/ml.” left out
as §4, with “p. 431,” for “p.431,”, “three” for “3”
as §4

C. neoformans 114.96 = assay type: cell-based, C. neoformans var. neoformans; conditions: Cryptococcus neoformans, C. neoformans 114.96, fluconazole-resistant
Excerpt: as §1
as §2, with “The only difference compared to the standardized procedure was the choice of drug dilutions ranging from 100 to 0.09 μg/ml.” left out
as §4, with “p. 431,” for “p.431,”, “three” for “3”
as §4

Compound `CC(C)NC(=N)c1ccc2nc(-c3ccc4c(c3)Cc3cc(-c5nc6ccc(C(=N)NC(C)C)cc6[nH]5)ccc3-4)[nH]c2c1` [Compound 57, 2,7-Bis[2-(5-N-isopropylamidino)benzimidazoyl]fluorene hydrochloride] has an MFC (Candida albicans A39) of 1.56 µg/mL, an MIC (Candida albicans A39; 48 hours, read-out: MIC80) of 0.78 µg/mL and an MFC (C. albicans 102.96) of 12.5 µg/mL. The MIC (C. albicans 102.96; 48 hours, read-out: MIC80) was 1.56 µg/mL, the MFC (C. albicans 103.96) was 12.5 µg/mL and the MIC (C. albicans 103.96; 48 hours, read-out: MIC80) was 1.56 µg/mL. For the same compound, the MFC (C. krusei 132.91) was 0.78 µg/mL, the MIC (C. krusei 132.91; 48 hours, read-out: MIC80) was 0.78 µg/mL and the MFC (C. lusitaniae 111.92) was 3.12 µg/mL. It also gave an MIC (C. lusitaniae 111.92; 48 hours, read-out: MIC80) of 0.78 µg/mL, an MFC [1] of 0.78 µg/mL and an MIC ([1]; 72 hr, read-out: MIC80) of 0.78 µg/mL. It also gave an MFC (C. neoformans 114.96) of 0.78 µg/mL and an MIC (C. neoformans 114.96; 72 hr, read-out: MIC80) of 0.78 µg/mL.
